Source: US8541588B2, “Sulfonamide derivatives” (Pfizer Limited, priority 2009, dated 2013)

Target: T1, Nav1.7 (or SCN9A) channel; HEK cells stably transfected with hSCN9A (Homo sapiens, UniProt Q15858)
T1 construct: expressed in transfected cells
Assay: Nav1.7 block, PatchXpress 7000 automated whole-cell voltage clamp, estimated IC50 (EIC50)
Format: cell-based
Details: estimated IC50, PatchXpress platform

[1] = hSCN9A HEK cells, Examples 283-814
[2] = hSCN9A HEK cells held at V1/2 of inactivation
[3] = hSCN9A HEK cells, Examples 815-1040

T1 sequence (Q15858 whole entry): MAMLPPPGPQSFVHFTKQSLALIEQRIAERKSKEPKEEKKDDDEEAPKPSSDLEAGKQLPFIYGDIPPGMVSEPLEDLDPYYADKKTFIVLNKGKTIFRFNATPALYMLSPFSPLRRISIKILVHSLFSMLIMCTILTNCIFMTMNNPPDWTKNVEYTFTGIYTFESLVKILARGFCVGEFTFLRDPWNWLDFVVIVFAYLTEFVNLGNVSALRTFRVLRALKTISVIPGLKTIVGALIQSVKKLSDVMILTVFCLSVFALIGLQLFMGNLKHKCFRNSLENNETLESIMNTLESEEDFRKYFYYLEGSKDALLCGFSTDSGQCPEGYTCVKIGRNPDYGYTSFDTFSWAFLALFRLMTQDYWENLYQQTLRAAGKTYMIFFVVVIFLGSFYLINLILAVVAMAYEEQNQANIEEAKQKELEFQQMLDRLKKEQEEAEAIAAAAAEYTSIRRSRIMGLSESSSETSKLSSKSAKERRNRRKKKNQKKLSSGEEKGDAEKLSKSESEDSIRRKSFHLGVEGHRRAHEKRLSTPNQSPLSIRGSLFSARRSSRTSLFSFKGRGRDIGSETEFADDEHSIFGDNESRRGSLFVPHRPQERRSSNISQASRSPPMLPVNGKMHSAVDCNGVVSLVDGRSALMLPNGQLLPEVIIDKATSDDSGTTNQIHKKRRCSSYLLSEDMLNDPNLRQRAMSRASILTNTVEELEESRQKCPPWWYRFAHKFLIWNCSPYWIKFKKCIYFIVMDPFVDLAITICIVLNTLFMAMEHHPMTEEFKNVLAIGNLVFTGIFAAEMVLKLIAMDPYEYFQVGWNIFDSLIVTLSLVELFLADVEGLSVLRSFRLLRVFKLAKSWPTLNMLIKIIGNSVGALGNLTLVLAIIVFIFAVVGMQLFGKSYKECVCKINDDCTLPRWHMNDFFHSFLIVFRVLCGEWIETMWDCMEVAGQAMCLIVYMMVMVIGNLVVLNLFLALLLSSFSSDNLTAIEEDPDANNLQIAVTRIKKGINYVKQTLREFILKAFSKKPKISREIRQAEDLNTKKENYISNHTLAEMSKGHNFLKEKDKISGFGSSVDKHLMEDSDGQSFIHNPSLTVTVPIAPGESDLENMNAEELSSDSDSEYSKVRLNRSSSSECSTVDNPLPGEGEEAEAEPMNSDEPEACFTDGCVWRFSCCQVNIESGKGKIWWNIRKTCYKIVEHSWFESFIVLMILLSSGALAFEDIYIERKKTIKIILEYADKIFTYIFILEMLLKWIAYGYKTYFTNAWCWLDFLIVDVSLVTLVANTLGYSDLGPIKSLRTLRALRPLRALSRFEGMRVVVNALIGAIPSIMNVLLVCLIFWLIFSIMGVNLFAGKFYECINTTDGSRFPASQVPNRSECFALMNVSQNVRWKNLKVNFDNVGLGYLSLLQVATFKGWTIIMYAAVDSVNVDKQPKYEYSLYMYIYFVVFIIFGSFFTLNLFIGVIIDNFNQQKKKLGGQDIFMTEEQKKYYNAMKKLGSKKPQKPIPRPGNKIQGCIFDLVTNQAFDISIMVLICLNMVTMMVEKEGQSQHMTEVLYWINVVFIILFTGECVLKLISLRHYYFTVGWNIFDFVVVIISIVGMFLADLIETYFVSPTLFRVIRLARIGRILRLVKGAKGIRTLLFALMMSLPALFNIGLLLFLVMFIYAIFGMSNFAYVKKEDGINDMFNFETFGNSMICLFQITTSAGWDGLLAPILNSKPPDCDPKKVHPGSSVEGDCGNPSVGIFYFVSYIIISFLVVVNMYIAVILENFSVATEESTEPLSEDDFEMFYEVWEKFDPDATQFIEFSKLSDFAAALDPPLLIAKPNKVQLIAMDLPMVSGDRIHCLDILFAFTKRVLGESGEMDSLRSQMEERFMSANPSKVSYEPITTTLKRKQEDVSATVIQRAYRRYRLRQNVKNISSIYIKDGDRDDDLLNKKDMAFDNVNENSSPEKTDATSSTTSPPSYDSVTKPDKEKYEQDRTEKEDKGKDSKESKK

SMILES	IC50 [1]	IC50 [2]	other results
O=S(=O)(Nc1nccs1)c1ccc(Oc2ccc(Cl)cc2-c2ccn[nH]2)c(F)c1 [Example 308, 4-[4-Chloro-2-(1H-pyrazol-5-yl)phenoxy]-3-fluoro-N-1,3-thiazol-2-ylbenzenesulfonamide]	980 nM	–	–
CCn1nc(C(F)(F)F)cc1-c1ccc(Oc2ccc(S(=O)(=O)Nc3nccs3)cc2C#N)cc1 [Example 280, 3-cyano-4-[4-(2-ethyl-5-trifluoromethyl-2H-pyrazol-3-yl)-phenoxy]-N-thiazol-2-yl-benzenesulfonamide]	–	90 nM	–
Cn1nccc1-c1cc(Cl)ccc1Oc1ccc(S(=O)(=O)Nc2cscn2)cc1F [Example 272, 4-[4-chloro-2-(2-methyl-2H-pyrazol-3-yl)-phenoxy]-3-fluoro-N-thiazol-4-yl-benzenesulfonamide]	–	810 nM	–
O=S(=O)(Nc1ncns1)c1cc(F)c(Oc2ccc(Cl)cc2-c2cnco2)cc1F [Example 970, 4-[4-chloro-2-(1,3-oxazol-5-yl)phenoxy]-2,5-difluoro-N-1,2,4-thiadiazol-5-ylbenzenesulfonamide]	–	–	IC50 [3]: 17 nM
N#Cc1cc(S(=O)(=O)Nc2ccc(F)cn2)ccc1Oc1ccccc1-c1ccccc1 [Example 366, 4-(biphenyl-2-yloxy)-3-cyano-N-(5-fluoropyridin-2-yl)benzenesulfonamide]	4800 nM	–	–
N#Cc1cc(S(=O)(=O)Nc2ncns2)ccc1Oc1cc(Cc2ccc(Cl)cc2)nn1CCO [Example 94, 4-{[3-(4-chlorobenzyl)-1-(2-hydroxyethyl)-1H-pyrazol-5-yl]oxy}-3-cyano-N-1,2,4-thiadiazol-5-ylbenzenesulfonamide]	–	2180 nM	–
COC(=O)c1ccc(Oc2ccc(S(=O)(=O)Nc3ncns3)cc2C#N)c(-c2ccnn2C)c1 [Example 30, methyl 4-(4-(N-1,2,4-thiadiazol-5-ylsulfamoyl)-2-cyanophenoxy)-3-(1-methyl-1H-pyrazol-5-yl)benzoate]	–	300 nM	–
O=S(=O)(Nc1nccs1)c1ccc(Oc2ncncc2-c2ccccc2)c(F)c1 [Example 236, 3-fluoro-4-(5-phenylpyrimidin-4-yloxy)-N-(thiazol-2-yl)benzenesulfonamide]	–	13900 nM	–
O=S(=O)(Nc1nncs1)c1cc(Cl)c(Oc2cc(OC(F)(F)F)ccc2-c2ccnnc2)cc1F [Example 966, 5-chloro-2-fluoro-4-[2-pyridazin-4-yl-5-(trifluoromethoxy)phenoxy]-N-1,3,4-thiadiazol-2-ylbenzenesulfonamide]	–	–	IC50 [3]: 40 nM
N#Cc1cncc(-c2cc(C(F)(F)F)ccc2Oc2ccc(S(=O)(=O)Nc3ncns3)cc2C#N)c1 [Example 284, 3-cyano-4-[2-(5-cyanopyridin-3-yl)-4-(trifluoromethyl)phenoxy]-N-1,2,4-thiadiazol-5-ylbenzenesulfonamide]	1600 nM	–	–
O=S(=O)(Nc1nccs1)c1ccc(Oc2cc(C(F)(F)F)nn2-c2ccccc2F)c(F)c1 [Example 230, 3-fluoro-4-[2-(2-fluoro-phenyl)-5-trifluoromethyl-2H-pyrazol-3-yloxy]-N-thiazol-2-yl-benzenesulfonamide]	–	710 nM	–
O=C(c1cccc(-c2cc(Cl)ccc2Oc2cc(F)c(S(=O)(=O)Nc3cscn3)cc2Cl)c1)N1CCC1 [Example 856, 4-{[3′-(azetidin-1-ylcarbonyl)-5-chlorobiphenyl-2-yl]oxy}-5-chloro-2-fluoro-N-1,3-thiazol-4-ylbenzenesulfonamide]	–	–	IC50 [3]: 22 nM
Cc1coc(-c2ccc(Oc3ccc(S(=O)(=O)Nc4nccs4)cc3C#N)cc2)n1 [Example 317, 3-cyano-4-[4-(4-methyl-1,3-oxazol-2-yl)phenoxy]-N-1,3-thiazol-2-ylbenzenesulfonamide]	2200 nM	–	–
O=S(=O)(Nc1nncs1)c1ccc(Oc2ccccc2-c2ccccc2)c(F)c1 [Example 251, 4-(biphenyl-2-yloxy)-3-fluoro-N-(1,3,4-thiadiazol-2-yl)benzenesulfonamide]	–	2540 nM	–
N#Cc1cc(S(=O)(=O)Nc2ncns2)ccc1Oc1ccc(Cl)cc1-c1cc(N2CCC2)ncn1 [Example 877, 4-[2-(6-azetidin-1-ylpyrimidin-4-yl)-4-chlorophenoxy]-3-cyano-N-1,2,4-thiadiazol-5-ylbenzenesulfonamide]	–	–	IC50 [3]: 470 nM
N#Cc1cc(S(=O)(=O)Nc2ncccc2F)ccc1Oc1ccccc1-c1ccccc1 [Example 420, 4-(biphenyl-2-yloxy)-3-cyano-N-(3-fluoropyridin-2-yl)benzenesulfonamide]	24000 nM	–	–
N#Cc1cc(S(=O)(=O)Nc2ncns2)ccc1Oc1ccc(C(F)(F)F)cc1-c1cccc(CN2CCC2)c1 [Example 988, 4-{[3′-(azetidin-1-ylmethyl)-5-(trifluoromethyl)biphenyl-2-yl]oxy}-3-cyano-N-1,2,4-thiadiazol-5-ylbenzenesulfonamide]	–	–	IC50 [3]: 0.7 nM
CCn1nc(C(F)(F)F)cc1-c1ccc(Oc2ccc(S(=O)(=O)Nc3ncc(F)cc3F)cc2C#N)cc1 [Example 311, 3-cyano-N-(3,5-difluoropyridin-2-yl)-4-{4-[1-ethyl-3-(trifluoromethyl)-1H-pyrazol-5-yl]phenoxy}benzenesulfonamide]	4900 nM	–	–
Cc1cc(C(F)(F)F)nn1-c1ccc(Oc2ccc(S(=O)(=O)Nc3nccs3)cc2C#N)c(C(C)C)c1 [Example 356, 3-cyano-4-{2-isopropyl-4-[5-methyl-3-(trifluoromethyl)-1H-pyrazol-1-yl]phenoxy}-N-1,3-thiazol-2-ylbenzenesulfonamide]	120 nM	–	–
O=S(=O)(Nc1ncns1)c1ccc(Oc2ccccc2-c2ccccc2)c(F)c1F [Example 269, 4-(biphenyl-2-yloxy)-2,3-difluoro-N-1,2,4-thiadiazol-5-ylbenzenesulfonamide]	–	480 nM	–
Cc1ccnc(NS(=O)(=O)c2ccc(Oc3ccccc3-c3ccccc3)c(C#N)c2)n1 [Example 425, 4-(biphenyl-2-yloxy)-3-cyano-N-(4-methylpyrimidin-2-yl)benzenesulfonamide]	11000 nM	–	–

Now from value to molecule, other results behind:

IC50 [1]	IC50 [2]	SMILES	other results
>1000 nM	–	N#Cc1cc(S(=O)(=O)Nc2nccs2)ccc1Oc1ccc(-c2nccc(C(F)(F)F)n2)cc1 [Example 454, 3-cyano-N-1,3-thiazol-2-yl-4-{4-[4-(trifluoromethyl)pyrimidin-2-yl]phenoxy}benzenesulfonamide]	–
5.8 nM	–	O=S(=O)(Nc1cscn1)c1cc(Cl)c(Oc2ccc(Cl)cc2-c2ccnn2C2CNC2)cc1F [Example 726, 4-[2-(1-azetidin-3-yl-1H-pyrazol-5-yl)-4-chlorophenoxy]-5-chloro-2-fluoro-N-1,3-thiazol-4-ylbenzenesulfonamide]	–
>1000 nM	–	COC(=O)c1cc(Oc2ccc(S(=O)(=O)Nc3nccs3)cc2C#N)ccc1-n1cc(Cl)cn1 [Example 495, methyl 2-(4-chloro-1H-pyrazol-1-yl)-5-{2-cyano-4-[(1,3-thiazol-2-ylamino)sulfonyl]phenoxy}benzoate]	–
20 nM	–	Cc1cc(-c2cc(C(F)(F)F)ccc2Oc2ccc(S(=O)(=O)Nc3ncns3)cc2C#N)ccn1 [Example 508, 3-cyano-4-[2-(2-methylpyridin-4-yl)-4-(trifluoromethyl)phenoxy]-N-1,2,4-thiadiazol-5-ylbenzenesulfonamide]	–
2.1 nM	–	O=S(=O)(Nc1ncns1)c1cc(Cl)c(Oc2ccc(Cl)cc2C2CCNCC2)cc1F [Example 796, 5-chloro-4-(4-chloro-2-piperidin-4-ylphenoxy)-2-fluoro-N-1,2,4-thiadiazol-5-ylbenzenesulfonamide]	–
